Values joined by “and” are separate entries in the source; they are usually repeats but may differ in a detail not shown here. Equal values may be shown once.
Experiments:
[1] = Pharmacokinetic assay in dogs; type: in vivo; conditions: beagles
Source text: Nitroxoline is mainly metabolized by Phase II metabolism in the liver with a high metabolism rate, thus the in vivo half-life is short. In this experiment, after a single intravenous or oral administration of nitroxoline and the compound obtained in Example 1 to dogs, the changes in the concentration of the compound nitroxoline in dog plasma were studied, so as to evaluate the in vivo pharmacokinetic behaviors of nitroxoline and the compound obtained in Example 1.
Male beagles (Beijing Marshall Bioresources Co., Ltd., laboratory animal production license No.: SCXK (Beijing) 2016-0001, laboratory animal certificate No.: 11400600001728), 3 beagles per group, weight 10-13 kg, 20-22 months old, were fasted overnight before drug administration with free access to water, and food was given 4 hours after drug administration. The compound to be tested was put into an EP tube, dimethyl sulfoxide, Solutol® and sterile water for injection (the volume ratio of the three was 1:2:17, v:v:v) were added, and the EP tube was sonicated for 20 minutes to fully dissolve the compound (formulation concentration of the compound: 0.005 mmol/mL). The intravenous dose was 0.01 mmol/kg, and the oral dose was 0.1 mmol/kg. 0.3 ml of whole blood was collected from the jugular vein before drug administration (0 hour) and 0.0833, 0.25, 0.5, 0.75, 1, 2, 4, 6, 8, 10 and 12 hours after drug administration (the sampling points were adjusted according to the situation) and placed in a centrifuge tube containing EDTA-K2 (Aldrich Reagents) for anticoagulation, which was placed in crushed ice after sample collection. The tube was centrifuged at 1530 g for 10 minutes within 0.5 hours of sample collection. All clean plasma were isolated and placed in another clean centrifuge tube, which was placed in a −20° C. refrigerator until testing.
A series of solutions for standard curve was prepared. To 10 μL of solutions for standard curve and samples was added 1000 μL of internal standard working solution (a solution of 5 ng/mL verapamil (Aldrich Reagents), 50 ng/mL glibenclamide (Aldrich Reagents) and 50 ng/mL diclofenac (Aldrich Reagents) in acetonitrile) was added, and the resulting solution was vortexed for 5 minutes. After centrifuging at 4° C., 3700 rpm for 10 minutes, 60 μL of the supernatant was collected into a sample tube and mixed well with 120 μL of water, and 10 μL of the mixed solution was injected into the LC/MS system for determination. Pharmacokinetic parameters were calculated using WinNonlin V6.2 non-compartmental model.

[2] = human; single-arm, open-label, multi-center phase II clinical trial; cited from earlier work
[3] = Pharmacokinetic assay in rats; type: in vivo; conditions: SD rats, oral 0.1 mmol/kg, 24 h, individual animals
Source text: In this experiment, after a single intravenous or oral administration of nitroxoline and the compound obtained in Example 1 to rats, the changes in the concentration of the compound nitroxoline in rat plasma were studied, so as to evaluate the in vivo pharmacokinetic behaviors of nitroxoline and the compound obtained in Example 1 in rats.
Male SD rats (Beijing Vital River Laboratory Animal Technology Co., Ltd., laboratory animal production license No.: SCXK (Beijing) 2016-0006, laboratory animal certificate No.: 11400700325643), 3 rats per group, weight 180-250 g, 6-7 weeks old, were fasted overnight before drug administration with free access to water, and food was given 4 hours after drug administration. The compound to be tested was put into an EP tube, 1.017 mL dimethyl sulfoxide, 2.035 mL Solutol® and sterile water for injection (the volume ratio of the three was 1:2:17, v:v:v) were added, and the EP tube was sonicated for 20 minutes to fully dissolve the compound (formulation concentration of the compound: 0.005 mmol/mL). […]
Sample to be tested: to 50 μL of plasma sample to be tested was added 5 μL of diluted working solution, then 150 μL of internal standard working solution (a solution of 2 ng/mL diphenhydramine in acetonitrile), and the resulting solution was vortexed for 1 minute. […] Pharmacokinetic parameters were calculated using WinNonlin V6.2 non-compartmental model.

- AUC0-inf of nitroxoline in plasma ([1]; intravenous 0.01 mmol/kg): 3300 ng*hmL^−1
- AUC0-inf of nitroxoline in plasma ([1]; oral 0.1 mmol/kg): 4780 ng*hmL^−1
- Plasma concentration of nitroxoline [3]: <5.0 ng/mL (2×) and 14.6 ng/mL
SMILES: O=[N+]([O-])c1ccc(O)c2ncccc12 [Nitroxoline, 5-nitro-8-hydroxyquinoline]
- half-life [2]: 1.22 to 1.44 h
